The text below walks through data of PMC9731497, “Identification of potent anti-Cryptosporidium new drug leads by screening traditional Chinese medicines” (PLOS Neglected Tropical Diseases, 2022).

Values joined by “and” are separate entries in the source; they are usually repeats but may differ in a detail not shown here. Equal values may be shown once.

The test system of series [1] is C. parvum HNJ-1 strain. As to the kind of experiment: In vivo C. parvum growth inhibition assay (oocyst shedding in feces of infected SCID mice, sugar flotation). Also noted: species or system Cryptosporidium parvum. Particulars: 100 mg/kg BW oral, 11 days, SCID mice n=3, mean of days 3, 6, 7, 9, 12, 14.
Series [2] concerns C. parvum HNJ-1 strain. As to the kind of experiment: In vitro C. parvum growth inhibition assay (Sporo-Glo staining, fluorescence microscopy count in infected HCT-8 cells). It counts as cell-based, Cryptosporidium parvum. The conditions noted are these: Cryptosporidium parvum, HCT-8; C. parvum, dose-dependent curve of comparative drug (response to reviewers); read-out: EC50 value. As for the experimental part:
The primary screening of compounds for C. parvum was performed as follows: HCT-8 cells were seeded in 96-well plates at a density of 2 × 10^4 cells/well and allowed to grow overnight. Before infecting cells, Cryptosporidium oocysts were excysted to sporozoites. 87 compounds were tested against C. parvum at a single concentration of 1 μM. Each compound was tested once. Infected HCT-8 cells and uninfected HCT-8 cells were used as positive and negative controls, respectively, in medium containing 0.1% DMSO. Nitazoxanide was used as a standard comparative drug. In vitro inhibition assays were carried out as previously described. Briefly, oocysts were suspended in 1 ml of 0.1% sodium hypochlorite in PBS, incubated for 5 min at 4°C, centrifuged for 10 min at 3000 rpm, and washed three times in PBS. The oocysts were then suspended in excystation solution consisting of 0.75% sodium taurocholate and 0.25% trypsin dissolved in 0.1 M phosphate buffer (with 93.4 mM K2HPO4 and 6.5 mM KH2PO4; pH 8.0) and incubated at 37°C for 1 h. The oocyst/sporozoite suspensions were then rinsed in 1 x PBS (with 137 mM NaCl, 2.7 mM KCl, 8 mM Na2HPO4, and 2 mM KH2PO4; pH 7.5) once more before being filtered through a 5-μm pore-size PVDF filter (Millipore, Burlington, MA, USA) with 5 ml syringe to remove the oocyst wall. HCT-8 cells were seeded in 96-well plates (Thermo Fisher Scientific Inc., MA, USA) and incubated overnight. The cells were then infected with C. parvum sporozoites (4 ×10^4 sporozoites/well) containing in RPMI-1640 medium for 3 h. After 3h inoculation, the non-infected parasite or debris were washed with new RPMI-1640 media. At this point, in RPMI-1640 medium containing 1 μM library compounds were added. Infected cells were incubated for an additional 45 h. Following incubation, the infected cells were fixed for 10 minutes in ice-cold 100% methanol at room temperature. Plates were then carefully rinsed 3 times with PBS. The parasite infected cells were then blocked with 1% bovine serum albumin (BSA) in PBS for 30 minutes and then stained with Sporo-Glo (an anti-Cryptosporidium polyclonal antibody) (Waterborne Environmental, Inc., VA, USA) protected from light for 1 h at room temperature. Finally, cells were washed twice with 1 x PBS-T (1 x PBS supplemented with 0.01% Tween). A Keyence BZ-II 9000 was used to capture the images (KEYENCE, Osaka, Japan). The plates were imaged with a HS all-in-one fluorescence microscope using a 20 x objective. The image output was imported into Microsoft excel for data organization and analyses. All C. parvum parasite in the well were counted.
For a second investigation, four selective hit compounds were used to determine the half-maximum inhibitory concentration (EC50). The parasites were treated with various doses of compounds (ranging from 0.008–1 μM). HCT-8 cells (2 × 10^4 cells/well) were grown for 24 h before being infected with 4 × 10^4 C. parvum sporozoites in 96-well plates. […] Sporo-Glo was used for C. parvum staining as described above. Fluorescence microscopy with a Keyence BZ-II 9000 imager was used to count all Cryptosporidium in the wells (KEYENCE, Osaka, Japan). EC50 vales were determined by analyzing dose-response curves made by GraphPad Prism (GraphPad Software, CA, USA).

The next series deals with C. parvum. As to the kind of experiment: Histopathological analysis and immunohistochemistry of ileum of C. parvum-infected mice. The series is classed as in vivo, Cryptosporidium parvum. Also noted: key to severity of C. parvum infection in ileum, Score: -, no oocysts; 1+, mild focal infection; 2+, moderate multifocal infection; 3+, severe diffuse infection. Particulars: HE and immunohistochemistry, most severe area, day 14, dose not stated. The protocol:
(§1) We performed a histopathological analysis to evaluate the growth inhibitory effects and toxicity of the hit compounds in C. parvum-infected mice. In brief, ileum was collected, fixed in 10% neutral buffered formalin, and paraffin-embedded. Each section was cut to a thickness of 4 μm for hematoxylin and eosin (HE) staining and immunohistochemistry. Immunohistochemistry (IHC) was performed following standard techniques using the Envision+ system (Agilent Technologies, Inc., Santa Clara, CA) and 3,3-diaminobenzidine (DAB)(Dojindo, Kumamoto, Japan). Anti-Toxoplasma gondii (RH strain) rabbit polyclonal IgG (Abcam, Cambridge, UK) was used as the primary antibody. The antibody cross reacts with C. Parvum. To reduce the endogenous peroxidase activity, the sections were incubated with 3% H2O2 for 5 minutes. Sections were incubated with primary antibodies overnight at 4°C. After washing with PBS with Tween 20 (PBST), sections were incubated with Envision+ single polymer solution (Agilent Technologies Inc.) for 30 minutes at room temperature. Sections were counterstained with Mayer’s hematoxylin. The severity of C. parvum infection was evaluated in the most severe area, and scored from—to 3+ (-, no oocysts; 1+, mild focal infection; 2+, moderate multifocal infection; 3+, severe diffuse infection). Sub-effects of drugs (hepatocellular damage) were evaluated for major histological changes in karyomegaly, hepatocellular hypertrophy, and interstitial fibrosis/inflammation. We also checked the organs (liver, heart, lung, kidney, and intestines) alteration at necropsy whether it has abnormal or normal.

The next series concerns Cryptosporidium parvum. Particulars: cited from earlier work.
The nature of series [3]: Liver histology (sub-effects of drugs, hepatocellular damage) in treated mice. It counts as in vivo, SCID mice. The conditions noted are these: mouse, in vivo. As for the experimental part:
as §1

`CC(=O)Oc1ccccc1C(=O)Nc1ncc([N+](=O)[O-])s1` [Nitazoxanide]: the “No. of oocysts, Mean” value in the series with C. parvum HNJ-1 strain [1] was 81.1. Also, the EC50 in the series with C. parvum HNJ-1 strain [2] is 4.14 ± 0.54 µM; in the series on Cryptosporidium parvum (ref PMID: 22167242, PMID: 29341586, PMID: 30297368, read-out: range of EC50 value) it was 1.55 to 5.1 µM. Besides, the “severity of C. parvum infection in ileum, Score” value in the series with C. parvum is recorded as 2+. In the series on Cryptosporidium parvum (ref 30 (Bessoff et al., 2013), read-out: IC50 against Cryptosporidium parvum), the IC50 was ~3.7 µM and 3.7 µM. In addition, the “histological findings in liver” value in series [3] was “karyomegaly and hepatocellular hypertrophy”.

The term EC50 denotes the concentration at which the effect is half-maximal. By IC50 is commonly meant the concentration that gives 50% inhibition.
